Source: patent US6608174B1, “Radiolabeled vasoactive intestinal peptide analogs for diagnosis and radiotherapy” (Dabur Research Foundation, priority 2000, dated 2003)
Like-named read-outs stand apart in the source and are kept apart here. Values belong to the molecule of their own block, whether it stands above or below them. Square brackets hold non-standard residues; d marks the D form. Ends that are not written are not given here. dPhe(4-Cl) = N[C@H](Cc1ccc(Cl)cc1)C(=O)O; Aib = CC(C)(N)C(=O)O

Experiments:
VIP receptors = experiment: Receptor binding and competition assay with 125I labeled peptide (SEQ ID NO:2) on human tumor cell lines; settings: for Kd: 4-8° C.
Method: In the practice of these methods, the peptide was radioiodinated using the iodogen method. Briefly, 5 μg of the peptide in 10 μl of 50 mM PBS (pH 7.5), an appropriate amount of the radioisotope and 50 μg-100 μg iodogen were incubated at room temperature for 15-30 min with occasional mixing. Radioiodinated peptide was purified from unincorporated radioactive iodine by purification on a Sep Pak C18 cartridge, essentially following the same procedure as described for technetium labeling. Receptor binding and competition assays were performed at 4-8° C. Briefly, 50,000 cells were plated per well of a 24 well plate and allowed to adhere overnight. Before the assay, the cells were washed twice with ice cold binding buffer (25 mM HEPES, 10 mM MgCl2 and 1% BSA in RPMI 1640 medium). The cells were incubated for 2-3 hrs with an appropriate concentration (0.1-10 nM) of the ^125I labeled peptide (SEQ ID NO:2), in the presence and absence of the cold ligand, which is the uniodinated form of the same peptide (1 nM-10 μM). After incubation, the cells were washed thrice with the binding buffer to remove the unbound peptide. The cells were lysed and counts were measured in a Gamma counter. From a comparison of the extent of binding in the presence or absence of the unlabeled peptide (SEQ ID NO:2), the dissociation constant (Kd) (TABLE I) and maximal binding (Bmax) (TABLE II) were calculated for the peptide. […] These characteristics are similar to what has been previously reported for VIP receptors. The following tumor cell lines were assayed using the above described binding competition assay: HT29 (human colorectal adenocarcinoma); PTC (human primary tumor cells adenocarcinoma); KB (human squamous cell carcinoma); 4451 (human squamous cell carcinoma); L132 (human lung carcinoma); A549 (human lung carcinoma); HBL100 (human breast carcinoma) and PA1 (human ovarian carcinoma). Cells were grown in RPMI 1640 supplemented with 10% fetal calf serum, glutamine and antibiotics using standard cell culture techniques (see Animal Cell Culture: A Practical Approach, Freshney, ed, IRL press: Oxford, UK, 1992).

[1] = target: VIP receptors on human tumor cell lines (human); experiment: displacement of 125I labeled VIP on HBL 100 cells
[2] = target: low affinity (µM range), high surface expression receptor on human tumor cells (VIP receptor) (human); experiment: homologous radioligand competition, 125I-SEQ ID NO:2 on PTC cells
[3] = target: high affinity (nM range), low surface expression receptor on human tumor cells (VIP receptor) (human); experiment: as above
[4] = target: VIP receptors on human tumor cell lines (human); experiment: displacement of 125I labeled VIP on KB cells
[5] = target: low affinity (µM range), high surface expression receptor on human tumor cells (VIP receptor) (human); experiment: maximal binding, 125I-SEQ ID NO:2 on A549 cells
[6] = target: high affinity (nM range), low surface expression receptor on human tumor cells (VIP receptor) (human); experiment: maximal binding, 125I-SEQ ID NO:2 on A549 cells
[7] = target: VIP receptors on human tumor cell lines (human); experiment: displacement of 125I labeled VIP (10-28) fragment on HBL 100 cells
[8] = target: VIP receptors on human tumor cell lines (human); experiment: displacement of 125I labeled VIP (10-28) fragment on KB cells
[9] = target: VIP receptors on human tumor cell lines (human); experiment: displacement of 125I labeled VIP (10-28) fragment on PTC cells
[10] = target: low affinity (µM range), high surface expression receptor on human tumor cells (VIP receptor) (human); experiment: homologous radioligand competition, 125I-SEQ ID NO:2 on A549 cells
[11] = target: high affinity (nM range), low surface expression receptor on human tumor cells (VIP receptor) (human); experiment: as above
[12] = target: low affinity (µM range), high surface expression receptor on human tumor cells (VIP receptor) (human); experiment: maximal binding, 125I-SEQ ID NO:2 on 4451 cells
[13] = target: high affinity (nM range), low surface expression receptor on human tumor cells (VIP receptor) (human); experiment: maximal binding, 125I-SEQ ID NO:2 on 4451 cells
[14] = target: VIP receptors on human tumor cell lines (human); experiment: displacement of 125I labeled VIP on 4451 cells
[15] = target: VIP receptors on human tumor cell lines (human); experiment: displacement of 125I labeled VIP on HT29 cells
[16] = target: VIP receptors on human tumor cell lines (human); experiment: displacement of 125I labeled VIP (10-28) fragment on A549 cells
[17] = target: VIP receptors on human tumor cell lines (human); experiment: displacement of 125I labeled VIP on PTC cells
[18] = target: low affinity (µM range), high surface expression receptor on human tumor cells (VIP receptor) (human); experiment: homologous radioligand competition, 125I-SEQ ID NO:2 on HT29 cells
[19] = target: high affinity (nM range), low surface expression receptor on human tumor cells (VIP receptor) (human); experiment: as above
[20] = target: low affinity (µM range), high surface expression receptor on human tumor cells (VIP receptor) (human); experiment: homologous radioligand competition, 125I-SEQ ID NO:2 on 4451 cells
[21] = target: high affinity (nM range), low surface expression receptor on human tumor cells (VIP receptor) (human); experiment: as above

Molecule: His-Ser-Asp-Aib-Val-4-Cl-D-Phe-Thr-Asp-Asn-Tyr-Thr-Arg-Leu-Arg-Lys-Gln-Leu-Ala-Val-Lys-Lys-Tyr-Leu-Asn-Ser-Ile-Leu-Asn-NH2 (HSD[Aib]V[dPhe(4-Cl)]TDNYTRLRKQLAVKKYLNSILN-NH2; N-terminus assumed; SMILES CC[C@H](C)[C@H](NC(=O)[C@H](CO)NC(=O)[C@H](CC(N)=O)NC(=O)[C@H](CC(C)C)NC(=O)[C@H](Cc1ccc(O)cc1)NC(=O)[C@H](CCCCN)NC(=O)[C@H](CCCCN)NC(=O)[C@@H](NC(=O)[C@H](C)NC(=O)[C@H](CC(C)C)NC(=O)[C@H](CCC(N)=O)NC(=O)[C@H](CCCCN)NC(=O)[C@H](CCCNC(=N)N)NC(=O)[C@H](CC(C)C)NC(=O)[C@H](CCCNC(=N)N)NC(=O)[C@@H](NC(=O)[C@H](Cc1ccc(O)cc1)NC(=O)[C@H](CC(N)=O)NC(=O)[C@H](CC(=O)O)NC(=O)[C@@H](NC(=O)[C@@H](Cc1ccc(Cl)cc1)NC(=O)[C@@H](NC(=O)C(C)(C)NC(=O)[C@H](CC(=O)O)NC(=O)[C@H](CO)NC(=O)[C@@H](N)Cc1c[nH]cn1)C(C)C)[C@@H](C)O)[C@@H](C)O)C(C)C)C(=O)N[C@@H](CC(C)C)C(=O)N[C@@H](CC(N)=O)C(N)=O) [SEQ ID NO:2, VIP receptor antagonist, preferred peptide (Xxx = Aib)]
Bmax1 (maximal binding) (VIP receptors; 4451 cells, high affinity receptor): 579 pM
Kd (VIP receptors; 4451 cells, high affinity receptor, read-out: Kd1): 4.48 nM
Bmax2 (maximal binding) (VIP receptors; 4451 cells, low affinity receptor): 51 nM
Kd (VIP receptors; 4451 cells, low affinity receptor, read-out: Kd2): 1910 nM
Bmax1 (maximal binding) (VIP receptors; A549 cells, high affinity receptor): 540 pM
Kd (VIP receptors; A549 cells, high affinity receptor, read-out: Kd1): 2.09 nM
Bmax2 (maximal binding) (VIP receptors; A549 cells, low affinity receptor): 48.3 nM
Kd (VIP receptors; A549 cells, low affinity receptor, read-out: Kd2): 1530 nM
Bmax1 (maximal binding) (VIP receptors; HBL 100 cells, high affinity receptor): 697 pM
Kd (VIP receptors; HBL 100 cells, high affinity receptor, read-out: Kd1): 2.13 nM
Bmax2 (maximal binding) (VIP receptors; HBL 100 cells, low affinity receptor): 69.1 nM
Kd (VIP receptors; HBL 100 cells, low affinity receptor, read-out: Kd2): 1600 nM
Bmax1 (maximal binding) (VIP receptors; HT29 cells, high affinity receptor): 367 pM
Kd (VIP receptors; HT29 cells, high affinity receptor, read-out: Kd1): 3.8 nM
Bmax2 (maximal binding) (VIP receptors; HT29 cells, low affinity receptor): 67.2 nM
Kd (VIP receptors; HT29 cells, low affinity receptor, read-out: Kd2): 1370 nM
Bmax1 (maximal binding) (VIP receptors; KB cells, high affinity receptor): 602 pM
Kd (VIP receptors; KB cells, high affinity receptor, read-out: Kd1): 4.2 nM
Bmax2 (maximal binding) (VIP receptors; KB cells, low affinity receptor): 42.9 nM
Kd (VIP receptors; KB cells, low affinity receptor, read-out: Kd2): 1840 nM
Bmax1 (maximal binding) (VIP receptors; L132 cells, high affinity receptor): 306 pM
Kd (VIP receptors; L132 cells, high affinity receptor, read-out: Kd1): 2.6 nM
Bmax2 (maximal binding) (VIP receptors; L132 cells, low affinity receptor): 45.8 nM
Kd (VIP receptors; L132 cells, low affinity receptor, read-out: Kd2): 1030 nM
Kd (VIP receptors; PA1 cells, high affinity receptor, read-out: Kd1): 5.6 nM
Kd (VIP receptors; PA1 cells, low affinity receptor, read-out: Kd2): 1890 nM
Bmax1 (maximal binding) (VIP receptors; PAI cells, high affinity receptor): 529 pM
Bmax2 (maximal binding) (VIP receptors; PAI cells, low affinity receptor): 47.7 nM
Bmax1 (maximal binding) (VIP receptors; PTC cells, high affinity receptor): 830 pM
Kd (VIP receptors; PTC cells, high affinity receptor, read-out: Kd1): 1.77 nM
Bmax2 (maximal binding) (VIP receptors; PTC cells, low affinity receptor): 96.6 nM
Kd (VIP receptors; PTC cells, low affinity receptor, read-out: Kd2): 1180 nM
kinds of receptors bound on the cell surface (VIP receptors; one high affinity (nM range), low expression, one low affinity, high expression): bound to two kinds of receptors on the cell surface

IC50 [1]: 5.41 nM
Kd [2]: 1180 nM
Kd [3]: 1.77 nM
IC50 [4]: 6.2 nM
Bmax2 [5]: 48.3 nM
Bmax1 [6]: 540 pM
IC50 [7]: 0.236 nM
IC50 [8]: 0.35 nM
IC50 [9]: 0.132 nM
Kd [10]: 1530 nM
Kd [11]: 2.09 nM
Bmax2 [12]: 51 nM
Bmax1 [13]: 579 pM
IC50 [14]: 7.1 nM
IC50 [15]: 2.78 nM
IC50 [16]: 0.275 nM
IC50 [17]: 2.53 nM
Kd [18]: 1370 nM
Kd [19]: 3.8 nM
Kd [20]: 1910 nM
Kd [21]: 4.48 nM
B1: VIP analog His-Ser-Asp-Aib-Val-4-Cl-D-Phe-Thr-Asp-Asn-Tyr-Thr-Arg-Leu-Arg-Lys-Gln-Leu-Ala-Val-Lys-Lys-Tyr-Leu-Asn-Ser-Ile-Leu-Asn-NH2 (SEQ ID NO: 2) (peptide)
peptide: HSD[Aib]V[dPhe(4-Cl)]TDNYTRLRKQLAVKKYLNSILN-NH2
modifications: also: 125I-labelled form (iodogen) used as tracer
